Results published in PMC9609317, “Evaluation of Metabolism of a Defined Pesticide Mixture through Multiple In Vitro Liver Models” (Toxics, 2022).

Columns and labels:
[1] = tested on: induced pluripotent stem cell-derived hepatocytes (iHep) suspension; test: In vitro hepatocyte clearance in iHep suspension, targeted LC-MS/MS and GC-MS/MS; format: in vitro ADME, human; conditions: 1 µM equimolar mixture, approximate values
Method: (§1) Suspension assays using iHep were performed as previously detailed with slight modification. In brief, pre-differentiated iHep were suspended in iHep maintenance media and adjusted to the cell concentration of 1 × 10^6 cells/mL. A portion of the cell working stock was heated at 95 °C for five minutes to serve as negative control. Five hundred microliters of the chemical stock (20 chemicals, 2 or 10 µM each) were spiked in 500 µL of the cell working stock or heat-inactivated cell control to a final cell density of 5 × 10^5 cells/mL. Fifty microliters were removed subsequently at 0, 60, 120, and 240 min to individual 1.5 mL Eppendorf tubes for further sample extraction detailed below. Each experimental condition was replicated three times.
Sample extraction procedures and chromatographic conditions were previously reported in [34]. In brief, each sample (50 µL) was spiked with 10 µL of 10 µM internal standards, mixed with 100 µL of chilled acetonitrile, and then centrifuged at 10,000× g for 5 min. The supernatant was dried under vacuum using SpeedVac (Savant SPD1010, Beckman Coulter, Brea, CA, USA) and reconstituted with 50 µL of aqueous mobile phase prior to analyses. LC-MS/MS analysis was performed using 1290 Infinity II LC and 6470 triple quadrupole mass spectrometer (both instruments from Agilent Technologies, Santa Clara, CA, USA). Sample extract (10 µL) was chromatographed on a ZORBAX SSHD Eclipse Plus C18 column (3.0 × 50 mm, 1.8 µm, Cat No.: 959757-302; Agilent Technologies) with a guard column (2.1 × 5 mm, 1.8 µm, Cat No.: 821725-901; Agilent Technologies), and ionized using electrospray ionization. Analytical response was acquired in both positive and negative modes.
For positive ion compounds, mobile phases consisted of 0.1% formic acid in water (A) and 0.1% formic acid in methanol (B) using the following gradient: 2% B held for 1 min, B increased to 80% by 3 min, B increased to 95% by 4 min, B decreased to 2% by 5 min and held for 3 min for a total run time of 8 min per sample at a flow rate of 0.4 mL/min. For negative ion compounds, the LC gradient and flow rate were the same as in positive mode, except that mobile phase A was water and mobile phase B was acetonitrile.
Fifty microliters of media sample were spiked with 10 µL of 10 µM internal standards, mixed with 50 µL of methanol and 200 µL of pentane: diethyl ether (1:1 v/v), vortexed briefly, and then centrifuged at 600× g for 5 min. Organic layer supernatants were transferred to a 2 mL amber vial and concentrated under nitrogen prior to GC analysis. Detection of analytes was achieved using a 7890B GC and 7010B triple quadrupole mass spectrometer (both from Agilent Technologies). Samples were injected (1 µL) in splitless mode. Analytes were separated with a VF-5ms GC column (60 m × 250 µm × 0.25 µm, Cat No.: CP8960; Agilent Technologies) and ionized using electron ionization. The column head pressure was set at 21.5 psi (148,237 Pa) with a constant flow rate at 1.2 mL/min using helium gas. Initial column temperature was held at 70 °C for 5 min, increased to 150 °C at 50 °C/min, ramped to 280 °C at 4 °C/min, and then held […]. The total run time was 42.1 min. The injector temperature was set at 250 °C. The ion source and auxiliary transfer line temperatures were 300 °C. Electron multiplier voltage was set at 1884 V. Ultra-high purity nitrogen gas was used as the collision gas for all MS/MS experiments, and collision gas pressure was set at 16.8 psi (115,832 Pa).
In vitro hepatocyte clearance (Clin vitro) of each chemical was estimated by substrate depletion approach assuming first-order kinetics for compound elimination: Clin vitro = kV/N, where k = first-order elimination rate constant, V = incubation volume, and N = number of cells in the incubation. […]

[2] = tested on: induced pluripotent stem cell-derived hepatocytes (iHep) suspension; test: iHep suspension, nontargeted IMS-MS analysis (clearance, metabolite formation, mass balance); format: in vitro ADME, human; conditions: for CLHep average, Nontargeted Analyses (IMS-MS): 1µM mixture; for Level of metabolism through nontargeted methods: % remaining by IMS-MS
Method: as §1
All nontargeted analyses were performed using a 6560 IMS-QTOF MS (Agilent Technologies) as detailed previously. All individual standards for pesticide parent compounds (n = 20) and known metabolites (n = 10) were directly injected in triplicate into the electrospray ionization (ESI) source (positive and negative mode) and atmospheric pressure photo-ionization (APPI, negative mode only) to obtain collision cross section (CCS) and mass-to-charge ratio (m/z) values. Blanks were injected between standards to reduce the likelihood of carryover. For sample analyses, ESI was chosen as the optimal source to detect analytes in either positive or negative mode. During IMS-MS analyses, ions were passed through the inlet glass capillary, focused by a high-pressure ion funnel, and accumulated in an ion funnel trap. Next, ions were pulsed into the 78.24 cm-long IMS drift tube filled with nitrogen gas at a pressure of approximately 3.95 torr (527 Pa). Ions exiting the drift tube were refocused by a rear ion funnel prior to quadrupole time-of-flight (QTOF) MS detection. Detailed instrumental settings in ESI mode can be found in Table S1. Prior to instrumental analysis, the IMS-MS was tuned and a mass calibration was performed using Agilent Tune Mix from the manufacturer (Cat No.: G2421-60001, Agilent Technologies).
In vitro hepatocyte clearance (Clin vitro) of each chemical was estimated by substrate depletion approach assuming first-order kinetics for compound elimination: Clin vitro = kV/N, where k = first-order elimination rate constant, V = incubation volume, and N = number of cells in the incubation. Clin vitro was further scaled up to the intrinsic hepatocyte clearance (Clint) according to the equation [38]:Clint = Clin vitro × HPGL × Vl(1) where HPGL = hepatocytes per gram liver (137 × 10^6 cells/g) and Vl = volume of the whole liver (1820 g).

COP(=S)(OC)SCn1nnc2ccccc2c1=O [Azinphos-methyl]
Clearance rate in suspension cultures [1]: 5 to 14 µL/min/10^6 hepatocytes | CLHep average, Nontargeted Analyses (IMS-MS) [2]: 8.987 µL/min/106 hepatocytes | Level of metabolism through nontargeted methods ([2]; 1 µM mixture): high levels of metabolism

CCOP(=S)(OCC)Oc1nc(Cl)c(Cl)cc1Cl [Chlorpyrifos]
Clearance rate in suspension cultures [1]: 5 to 14 µL/min/10^6 hepatocytes | CLHep average, Nontargeted Analyses (IMS-MS) [2]: 7.82 µL/min/106 hepatocytes | Level of metabolism through nontargeted methods ([2]; 1 µM mixture): high levels of metabolism

CCOP(=S)(OCC)SCCSCC [Disulfoton]
Clearance rate in suspension cultures [1]: 5 to 14 µL/min/10^6 hepatocytes | CLHep average, Nontargeted Analyses (IMS-MS) [2]: 5.305 µL/min/106 hepatocytes | Level of metabolism through nontargeted methods ([2]; 1 µM mixture): high levels of metabolism

CCOP(=S)(OCC)SCSP(=S)(OCC)OCC [Ethion]
Clearance rate in suspension cultures [1]: 5 to 14 µL/min/10^6 hepatocytes | CLHep average, Nontargeted Analyses (IMS-MS) [2]: 5.216 µL/min/106 hepatocytes | Level of metabolism through nontargeted methods ([2]; 1 µM mixture): high levels of metabolism

CCOP(=S)(OCC)Oc1cc(C)nc(C(C)C)n1 [Diazinon]
Clearance rate in suspension cultures [1]: 5 to 14 µL/min/10^6 hepatocytes | CLHep average, Nontargeted Analyses (IMS-MS) [2]: 2.285 µL/min/106 hepatocytes

O=[N+]([O-])c1ccc(O)c([N+](=O)[O-])c1 [2,4-Dinitrophenol]
Clearance rate in suspension cultures [1]: 5 to 14 µL/min/10^6 hepatocytes | CLHep average, Nontargeted Analyses (IMS-MS) [2]: 8.886 µL/min/106 hepatocytes | Level of metabolism through nontargeted methods ([2]; 1 µM mixture): high levels of metabolism

CCOP(O)(=S)OCC [diethylthiophosphate]
Metabolite formation (IMS-MS abundance) ([2]; 1 µM mixture, relative abundance among the five detected metabolites): formed at the highest amount
